{"source": "patent US20210130806A1", "about": "“ENGINEERED BACTERIA EXPRESSING RACEMASE FOR TREATING DISEASES ASSOCIATED WITH HYPERAMMONEMIA” (Synlogic Operating Company, Inc., priority 2017, published 2021)", "origin": "cited, not measured here", "key": {"[1]": {"tested_on": "hepatic encephalopathy", "conditions": "compared with placebo, over a 6-month period"}, "[2]": {"tested_on": "E. coli", "conditions": "in vitro and in clinical studies"}}, "data": [{"smiles": "CO[C@H]1/C=C/O[C@@]2(C)Oc3c(C)c(O)c4c(O)c(c5c(nc6cc(C)ccn65)c4c3C2=O)NC(=O)/C(C)=C\\C=C\\[C@H](C)[C@H](O)[C@@H](C)[C@@H](O)[C@@H](C)[C@H](OC(C)=O)[C@@H]1C", "note": "[Rifaximin]", "values": [{"measurement": "risk of an episode of hepatic encephalopathy", "setting": "[1]", "result": "significantly reduce"}, {"measurement": "activity against E. coli", "setting": "[2]", "result": "active"}]}]}
